In patent publication US9937235B2, “Lipidated peptides as anti-obesity agents” (USTAV ORGANICKE CHEMIE A BIOCHEMIE AKADEMIE VED CR, V.V.I, priority 2012, dated 2018):
Where a SMILES comes first, the peptide text is derived from it. [ ]: non-standard residue; d: D form. The star is where a group is joined. 1Nal = N[C@@H](Cc1cccc2ccccc12)C(=O)O; Tridecanoyl = CCCCCCCCCCCCC(=O)*; Nle = CCCC[C@H](N)C(=O)O; Octanoyl = CCCCCCCC(=O)*; Dap = NC[C@H](N)C(=O)O

Assays:
[1] = biological target: T1, rat PrRP receptor (GPR10) in RC-4B/C cells (Rattus norvegicus, UniProt Q64121); experiment: Competitive binding to rat pituitary RC-4B/C cells; details: ^125I-rat PrRP31, RC-4B/C cells
T1 construct: host or cells: RC-4B/C rat pituitary cell line
T1 sequence (Q64121 1-370): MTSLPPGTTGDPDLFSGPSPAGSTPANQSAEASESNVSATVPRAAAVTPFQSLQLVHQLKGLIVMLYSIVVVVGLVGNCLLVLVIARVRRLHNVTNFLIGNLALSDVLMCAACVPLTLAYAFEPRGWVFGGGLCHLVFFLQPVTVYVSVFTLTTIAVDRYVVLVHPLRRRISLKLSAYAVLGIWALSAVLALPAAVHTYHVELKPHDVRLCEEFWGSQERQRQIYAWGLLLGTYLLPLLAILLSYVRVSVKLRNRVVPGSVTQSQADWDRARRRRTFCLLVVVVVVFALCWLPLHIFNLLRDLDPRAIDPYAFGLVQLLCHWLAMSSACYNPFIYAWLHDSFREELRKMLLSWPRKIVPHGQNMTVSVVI
Description: Competitive binding experiments were performed according to Motulsky and Neubig (Motulsky, A., et al., “Analyzing radioligand binding data,” Curr Protoc Neurosci, Chapter 7, Unit 7.5, 2002). The rat pituitary cell line RC-4B/C (ATCC, Manassas, USA) was grown on 24-well plates which had their bottom coated with polyethyleneimine. The cells were grown to the optimal density of 300-450 thousand per well. […] Plates were incubated for 60 minutes at room temperature. After incubation, the cells were solubilized in 0.1 mol/l solution of NaOH and the radioactivity bound to the cells was counted using a γ-counter. The experiments were performed in duplicate and repeated at least three times. For evaluation of competitive binding experiments, the program Graph Pad Prism Software (San Diego, Calif., USA) was used. A method of nonlinear regression assuming one-site binding was used.

fasted C57BL/6 mice [2] = experiment: Food intake in fasted mice after SC administration; format: in vivo, mouse; details: SC administration; for % control: food intake vs saline
Method in brief: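 Male C57BL/6 mice, food-deprived 17 h, received saline, PrRP or lipidated analogs either SC at 1-10 mg/kg or ICV into the third ventricle at 4 nmol/mouse.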

[3] = system: MAPK/ERK1/2 signaling pathway in RC-4B/C cells; experiment: MAPK/ERK1/2 signaling in RC-4B/C cells (Western blot); format: cell-based, rat; details: 10^−6 mol·l^−1, 5 minute incubation
Description: RC-4B/C cells, which were used to determine if lipidated PrRP20 analogs are able to initiate the MAPK/ERK1/2 signaling pathway, were grown in 6-well plates up to the optimal density of […]. Seventeen hours before sample harvest, the growth medium was replaced by a serum-free medium lacking epidermal growth factor (EGF). The respective lipidated PrRP analog was added to each well in the final concentration of 10^−6 mol·l^−1. After a 5 minute incubation at 37° C., the plate was placed on ice and each well was rinsed three times with PBS pH 7.4 (137 mmol·l^−1 NaCl, 2.7 mmol·l^−1 KCl, 8 mmol·l^−1 Na2HPO4.2H2O a 1.76 mmol·l^−1 KH2PO4) and cooled to 4° C. […] Samples were collected in at least three independent experiments.
To determine if the lipidated PrRP20 analogs initiated the MAPK/ERK1/2 signaling pathway, Western blot analysis was used. Electrophoresis was performed on 5%/12% polyacrylamide gel in the presence of SDS (SDS-PAGE) on the instrument MiniProtean 3 (BioRad, Herkules, Calif., USA). Samples that were loaded on the gel were first disintegrated by ultrasound, then heated at 100° C. for 2 minutes, and centrifuged for 5 minutes at 500×g at room temperature. […] Electrophoresis was performed at a constant voltage of 100 V for 10 minutes, or for 60 minutes at 150 V.
To show the presence of phosphorylated proteins in the samples, the proteins from the SDS-PAGE gel were transferred to the Immobilon™-P PVDF (polyvinylidene difluoride) membrane (Sigma-Aldrich, USA). The transfer was performed in blotting buffer at pH 8.3 (25 mmol·l^−1 Tris, 192 mmol·l^−1 glycine and 20% methanol) for 20 hours at 4° C. at a constant voltage of 30 V.
After the protein transfer to the PVDF membrane, the membranes were washed for 5 minutes in TBS washing buffer (20 mmol·l^−1 Tris, 140 mmol·l^−1 NaCl and 0.1% Tween-20) and then incubated for 1 hour in blocking buffer (TBS with 5% non-fat milk powder and 5 mmol·l^−1 Na3VO4 and 50 mmol·l^−1 NaF) at room temperature. Further, the membranes were washed three times for 5 minutes using the TBS washing buffer. The membranes were then incubated with the primary antibody against phospho-p44/42 MAPK(Thr202/Tyr204) (Cell Signaling Technology, Beverly, USA) which was diluted in blocking buffer at 1:1000. After the next three washes with the TBS washing buffer for 5 minutes, the membranes were incubated for 1 hour with rabbit secondary antibody labeled with peroxidase (Sigma, St. Louis, USA) which was diluted in blocking buffer at 1:12,000.
The membranes were then washed three times in TBS washing buffer for 5 minutes and then the solution Femto (Pierce SuperSignal, Thermo Fisher Scientific, Rockford, Ill., USA) was applied. The induced chemiluminiscence was detected by a CCD camera (LAS 3000, Fuji Photo Film GmBH, Düsseldorf, Germany).
To assess the initiation of signaling pathways, a densitometric analysis using the program Quantity One (BioRad, Hercules, Calif., USA) was used. For statistical evaluation of the statistically significant response of the cellular signaling, one-way ANOVA with subsequent Dunnett post-hoc test was used. Data was statistically significant at P<0.05.

fasted C57BL/6 mice [4] = experiment: Food intake in fasted mice after ICV administration; format: in vivo; details: 4 nmol/mouse; for % control: food intake vs saline
Description: Male C57BL/6 mice (An Lab, Prague 4) were bred in the accredited animal facility in the Institute of Organic Chemistry and Biochemistry, Czech Academy of Sciences, Prague, at the Institute of Molecular Genetics, Prague 4, at the temperature of 22±2° C. with access to food and water ad libitum. The day/night cycle was 12/12 hours (light turned on at 6:00 am). Animals were treated according to the Animal Protection Act (Act No. 246/1992). The males were fed standard chow diet St-1 (Mlýn Kocanda, Praha, Czech Republic) which contained 66% saccharides, 25% proteins and 9% lipids with a caloric value of 3.4 kcal/g.
The food was withdrawn 17 hours prior to injection of lipidated peptide and free access to water was maintained. The administration of saline, PrRP or lipidated analogs was performed either by SC injection at doses of 1-10 mg/kg (volume 0.2 ml/mouse), or by ICV using infusion pump (cannulae were inserted into the third brain ventricle 4 days before the experiment following the procedure of Maixnerová et al. (Maixnerová et al., 2011)). The single dose of peptide was 4 nmol/mouse (5 μl/mouse).
Fifteen minutes after the lipidated peptide administration, the mice were given pre-weighed food. The food was then weighed every 30 minutes for 5-10 hours. The administration of every dose was performed at least twice and one group of mice consisted of at least 6 mice. The results were presented as % of food intake as compared with the control group injected with saline.
Statistical evaluation was performed using program Graph-Pad Prism Software (San Diego, Calif., USA), and the one-way ANOVA with a subsequent Dunnettovým post-hoc test. The difference in food intake between mice injected with saline and mice injected with the examined peptide were considered statistically significant at P<0.05.

[5] = 45 minutes, dose not stated for these substances
[6] = 300 minutes, dose not stated for these substances

Compound	% of PrRP31 binding [1]	food intake (fasted C57BL/6 mice [2]; 45 minutes, 10 mg/kg)	% control (fasted C57BL/6 mice [2]; 45 minutes, 10 mg/kg)	food intake (fasted C57BL/6 mice [2]; 300 minutes, 10 mg/kg)	% control (fasted C57BL/6 mice [2]; 300 minutes, 10 mg/kg)	ERK signaling [3]	food intake (fasted C57BL/6 mice [4]; 45 minutes)	% control (fasted C57BL/6 mice [4]; 45 minutes)	food intake (fasted C57BL/6 mice [4]; 300 minutes)	% control (fasted C57BL/6 mice [4]; 300 minutes)	food intake (fasted C57BL/6 mice [2]; 45 minutes, 5 mg/kg)	% control (fasted C57BL/6 mice [2]; 45 minutes, 5 mg/kg)	food intake (fasted C57BL/6 mice [2]; 300 minutes, 5 mg/kg)	% control (fasted C57BL/6 mice [2]; 300 minutes, 5 mg/kg)	food intake (fasted C57BL/6 mice [2]; [5])	% control (fasted C57BL/6 mice [2]; [5])	food intake (fasted C57BL/6 mice [2]; [6])	% control (fasted C57BL/6 mice [2]; [6])
CCCC[C@H](NC(=O)[C@H](CO)NC(=O)[C@H](Cc1c[nH]cn1)NC(=O)[C@H](CCC(N)=O)NC(=O)[C@H](Cc1c[nH]cn1)NC(=O)[C@H](C)NC(=O)[C@H](CCCNC(=N)N)NC(=O)[C@@H](N)CN)C(=O)N[C@@H](CCC(=O)O)C(=O)N[C@H](C(=O)N[C@@H](CCCNC(=N)N)C(=O)N[C@H](C(=O)N1CCC[C@H]1C(=O)N[C@@H](CC(=O)O)C(=O)N[C@H](C(=O)N[C@@H](CC(N)=O)C(=O)N1CCC[C@H]1C(=O)N[C@@H](C)C(=O)N[C@@H](Cc1c[nH]c2ccccc12)C(=O)N[C@@H](Cc1ccc(O)cc1)C(=O)N[C@H](C(=O)NCC(=O)N[C@@H](CCCNC(=N)N)C(=O)NCC(=O)N[C@H](C(=O)N[C@@H](CCCNC(=N)N)C(=O)N1CCC[C@H]1C(=O)N[C@H](C(=O)NCC(=O)N[C@@H](CCCNC(=N)N)C(=O)N[C@@H](Cc1ccccc1)C(N)=O)C(C)C)[C@@H](C)CC)[C@@H](C)O)[C@@H](C)CC)[C@@H](C)O)[C@@H](C)O [Analog 1] (H-[Dap]RAHQHS[Nle]ETRTPDINPAWYTGRGIRPVGRF-NH2)	132%	0.38 g	117%	1.05 g	97%	agonist	0.39 g	70%	0.71 g	53%								
CCCCCCCCCCCCC(=O)NC[C@H](N)C(=O)N[C@@H](CCCNC(=N)N)C(=O)N[C@@H](C)C(=O)N[C@@H](Cc1c[nH]cn1)C(=O)N[C@@H](CCC(N)=O)C(=O)N[C@@H](Cc1c[nH]cn1)C(=O)N[C@@H](CO)C(=O)N[C@@H](CCCC)C(=O)N[C@@H](CCC(=O)O)C(=O)N[C@H](C(=O)N[C@@H](CCCNC(=N)N)C(=O)N[C@H](C(=O)N1CCC[C@H]1C(=O)N[C@@H](CC(=O)O)C(=O)N[C@H](C(=O)N[C@@H](CC(N)=O)C(=O)N1CCC[C@H]1C(=O)N[C@@H](C)C(=O)N[C@@H](Cc1c[nH]c2ccccc12)C(=O)N[C@@H](Cc1ccc(O)cc1)C(=O)N[C@H](C(=O)NCC(=O)N[C@@H](CCCNC(=N)N)C(=O)NCC(=O)N[C@H](C(=O)N[C@@H](CCCNC(=N)N)C(=O)N1CCC[C@H]1C(=O)N[C@H](C(=O)NCC(=O)N[C@@H](CCCNC(=N)N)C(=O)N[C@@H](Cc1ccccc1)C(N)=O)C(C)C)[C@@H](C)CC)[C@@H](C)O)[C@@H](C)CC)[C@@H](C)O)[C@@H](C)O [Analog 4] (H-[Dap](Tridecanoyl)RAHQHS[Nle]ETRTPDINPAWYTGRGIRPVGRF-NH2)	967%					agonist	0.38 g	71%	1.4 g	105%	0.07 g	30%	1.04 g	101%				
CCCCCCCC(=O)NC[C@H](N)C(=O)N[C@@H](CCCNC(=N)N)C(=O)N[C@@H](C)C(=O)N[C@@H](Cc1c[nH]cn1)C(=O)N[C@@H](CCC(N)=O)C(=O)N[C@@H](Cc1c[nH]cn1)C(=O)N[C@@H](CO)C(=O)N[C@@H](CCCC)C(=O)N[C@@H](CCC(=O)O)C(=O)N[C@H](C(=O)N[C@@H](CCCNC(=N)N)C(=O)N[C@H](C(=O)N1CCC[C@H]1C(=O)N[C@@H](CC(=O)O)C(=O)N[C@H](C(=O)N[C@@H](CC(N)=O)C(=O)N1CCC[C@H]1C(=O)N[C@@H](C)C(=O)N[C@@H](Cc1c[nH]c2ccccc12)C(=O)N[C@@H](Cc1ccc(O)cc1)C(=O)N[C@H](C(=O)NCC(=O)N[C@@H](CCCNC(=N)N)C(=O)NCC(=O)N[C@H](C(=O)N[C@@H](CCCNC(=N)N)C(=O)N1CCC[C@H]1C(=O)N[C@H](C(=O)NCC(=O)N[C@@H](CCCNC(=N)N)C(=O)N[C@@H](Cc1cccc2ccccc12)C(N)=O)C(C)C)[C@@H](C)CC)[C@@H](C)O)[C@@H](C)CC)[C@@H](C)O)[C@@H](C)O [Analog 8] (H-[Dap](Octanoyl)RAHQHS[Nle]ETRTPDINPAWYTGRGIRPVGR[1Nal]-NH2)	13%					agonist	0.34 g	60%	1.05 g	79%					0.17 g	76%	0.78 g	90%
